Assay results taken from US4329453A, “Cephalosporin antibiotic” (Glaxo Group Limited, priority 1979, dated 1982).
Where a name gives a salt, the structure may show the parent alone.

What was measured:
[1] = stability; type: physicochemical
From the text: These properties render the hydrate of value in pharmaceutical use.
The salts for use in the preparation of the new pentahydrate according to the invention may be prepared by a process disclosed in the above-mentioned U.K. Patent Specification No. 2025398, i.e. by a process corresponding to the method above mentioned.

[2] = test system: bacteria; assay: antibiotic activity in vitro (broad spectrum); type: cell-based
[3] = test system: indole-positive Proteus; assay: activity against indole-positive Proteus; type: cell-based
[4] = test system: Serratia; assay: activity against Serratia; type: cell-based
[5] = test system: Providence; assay: activity against Providence; type: cell-based
[6] = test system: Pseudomonas organisms; assay: activity against Pseudomonas organisms; type: cell-based
[7] = distribution and levels in small rodents after subcutaneous injection; type: in vivo
[8] = test system: gram-negative bacteria; assay: experimental infections in mice with gram-negative bacteria; type: in vivo
[9] = test system: Pseudomonas aeruginosa; assay: experimental infections in mice with Pseudomonas aeruginosa; type: in vivo
[10] = acute toxicity tests in mice; conditions: mouse, in vivo
[11] = nephrotoxicity in rats; type: in vivo; conditions: dosages of 2.0 g/kg
[12] = early clinical results; type: in vivo, human
[13] = test system: bacteria; conditions: as described in U.K. Patent Specification No. 2025398; cited from earlier work
[14] = test system: gram-negative organisms; conditions: as described in U.K. Patent Specification No. 2025398; cited from earlier work
[15] = test system: β-lactamase-producing gram-negative strains; conditions: as described in U.K. Patent Specification No. 2025398; cited from earlier work
[16] = especially at elevated temperatures, U.K. Patent Specification No. 2025398; cited from earlier work
[17] = pharmacokinetic studies in human volunteers
[18] = test system: pathogenic bacteria; assay: antibiotic properties of the crystalline pentahydrate; type: cell-based; conditions: compared with compound (I)

With CC(C)(O/N=C(\C(=O)N[C@@H]1C(=O)N2C(C(=O)[O-])=C(C[n+]3ccccc3)CS[C@H]12)c1csc(N)n1)C(=O)O [bishydrochloride, (6R,7R)-7-[(Z)-2-(2-Aminothizol-4-yl)-2-(2-carboxyprop-2-oxyimino)acetamidol]-3-(1-pyridiniummethyl)ceph-3-em-4-carboxylate bishydrochloride] as the compound, how does the “stability of crystalline bishydrochloride” value ([1]; crystallised from acetone and formic acid) read?
Its value is “highly stable”.

With CC(C)(O/N=C(\C(=O)N[C@@H]1C(=O)N2C(C(=O)[O-])=C(C[n+]3ccccc3)CS[C@H]12)c1csc(N)n1)C(=O)O [ceftazidime, (6R,7R)-7-[(Z)-2-(2-aminothiazol-4-yl)-2-(2-carboxyprop-2-oxyimino)acetamido]-3-(1-pyridiniummethyl)ceph-3-em-4-carboxylate] as the compound, how does the bactericidal action ([2]; at concentrations close to the minimum inhibitory concentration) read?
The bactericidal action was “rapidly bactericidal”.

What about the “effect of human serum on antibacterial properties” value ([2]; human serum) of the same compound?
The value was “not impaired by human serum”.

What about the “effect of increased inocula” value ([2]; increased inocula) of the same compound?
The value was “low”.

And the “activity against indole-positive Proteus” value [3]?
The value was “excellent activity”.

What about the “activity against Serratia” value [4] of the same compound?
The value was “excellent activity”.

What about the “activity against Providence” value [5] of the same compound?
Its value is “excellent activity”.

What about the “activity against Pseudomonas organisms” value [6] of the same compound?
The value was “excellent activity”.

And the “distribution in the bodies of small rodents” value [7]?
The value was “well distributed”.

What about the “levels after subcutaneous injection” value ([7]; subcutaneous injection) of the same compound?
The value was “useful therapeutic levels”.

And the “treatment of experimental infections with gram-negative bacteria” value [8]?
The value was “successfully treated”.

What about the “protection against strains of Pseudomonas aeruginosa” value [9] of the same compound?
The value was “excellent protection”.

And the “protection compared with treatment with an aminoglycoside such as amikacin” value ([9]; versus amikacin)?
Its value is “comparable”.

And the LD50 [10]?
The LD50 was > 6000 mg/kg.

And the nephrotoxicity [11]?
The nephrotoxicity was “No nephrotoxicity has been observed”.

What about the “antibiotic properties in the clinic” value [12] of the same compound?
The value was “reproduces in the clinic the excellent antibiotic properties”.

And the “broad spectrum antibiotic activity” value [13]?
The value was “broad spectrum antibiotic activity”.

And the “activity against gram-negative organisms” value [14]?
Its value is “unusually high activity”.

What about the “activity against β-lactamase-producing gram-negative strains” value [15] of the same compound?
Its value is “unusually high activity”.

And the “stability of amorphous solid” value [16]?
Its value is “not particularly satisfactory”.

What about the pharmacokinetic properties [17] of the same compound?
Its pharmacokinetic properties is “good pharmacokinetic properties”.

What about the serum half-life [17] of the same compound?
Its serum half-life is “long”.

And the “serum levels after injection” value ([17]; injection)?
The value was “high and long lasting serum levels”.

Which results are given for CC(C)(O/N=C(\C(=O)N[C@@H]1C(=O)N2C(C(=O)[O-])=C(C[n+]3ccccc3)CS[C@H]12)c1csc(N)n1)C(=O)O [crystalline pentahydrate, (6R, 7R)-7-[(Z)-2-(2-aminothiazol-4-yl)-2-(2-carboxyprop-2-oxyimino)acetamido]-3-(1-pyridiniummethyl)ceph-3-em-4-carboxylate pentahydrate]?
crystallinity and stability (quality) ([1]; new hydrate): superior quality; stability on storage ([1]; stored at 50° C. for an extended period): remarkably stable; antibiotic properties [18]: exhibits the antibiotic properties of the above-mentioned compound (I)
